“And” between values parts separate entries of the source, which are not always exact repeats. Equal values may be shown once.
Tests used:
HiBiT-5-HT2A = target: T1, HiBiT-5-HT2A (Homo sapiens, UniProt P28223); test: NanoBRET Target Engagement competitive displacement of […], HiBiT-5-HT2A transiently expressed in HEK293 cells; settings: equilibrium competitive displacement, Cheng-Prusoff; read-out: KI (binding affinity) at 5-HT2A
T1 construct: expressed in transfected cells; host or cells: HEK293 (transient)
T1 sequence (P28223 whole entry): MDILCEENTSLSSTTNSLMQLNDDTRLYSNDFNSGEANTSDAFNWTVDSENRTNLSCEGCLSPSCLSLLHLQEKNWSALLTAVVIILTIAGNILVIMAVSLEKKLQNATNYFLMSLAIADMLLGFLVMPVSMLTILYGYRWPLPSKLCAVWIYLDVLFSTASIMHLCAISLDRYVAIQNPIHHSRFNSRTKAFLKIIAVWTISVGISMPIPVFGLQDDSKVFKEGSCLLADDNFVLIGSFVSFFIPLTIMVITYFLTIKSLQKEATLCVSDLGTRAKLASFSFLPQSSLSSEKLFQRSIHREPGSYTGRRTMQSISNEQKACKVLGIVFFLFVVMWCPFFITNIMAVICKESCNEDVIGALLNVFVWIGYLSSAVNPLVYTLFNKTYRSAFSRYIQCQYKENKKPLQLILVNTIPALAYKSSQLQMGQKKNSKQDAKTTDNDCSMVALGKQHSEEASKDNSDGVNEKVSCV

human 5-HT2C receptor = target: T2, human 5-HT2C receptor (Homo sapiens, UniProt P28335); test: Gq-mediated calcium flux assay, Flp-In 293 T-Rex inducible cells (agonist and antagonist mode); format: cell-based
T2 construct: expressed in transfected cells
T2 sequence (P28335 33-458): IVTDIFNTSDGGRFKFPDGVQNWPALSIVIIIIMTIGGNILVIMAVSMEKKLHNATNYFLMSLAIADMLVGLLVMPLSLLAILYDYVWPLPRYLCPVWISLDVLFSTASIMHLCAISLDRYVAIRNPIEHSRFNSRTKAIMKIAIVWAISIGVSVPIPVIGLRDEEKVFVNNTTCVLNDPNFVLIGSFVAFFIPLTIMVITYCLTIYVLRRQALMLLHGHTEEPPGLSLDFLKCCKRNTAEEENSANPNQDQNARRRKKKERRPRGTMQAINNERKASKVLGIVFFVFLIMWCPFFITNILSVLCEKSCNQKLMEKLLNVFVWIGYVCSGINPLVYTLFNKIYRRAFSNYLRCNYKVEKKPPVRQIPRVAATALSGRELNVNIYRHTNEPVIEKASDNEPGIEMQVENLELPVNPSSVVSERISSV

human Nav1.1 and Navβ1 [1] = target: T3, human Nav1.1 and Navβ1 (Homo sapiens, UniProt P35498); test: Manual whole-cell patch clamp sodium current recording, HEK cells expressing hNav1.1 and Navβ1; format: cell-based; settings: for reduction in Nav1.1 peak INa: after 3.9 minutes of perfusion
Experimental: Cell lines: Human Embryonic Kidney (HEK) 293 cells stably expressing human VGSC a subunit Nav1.1 (GenBank accession number NP_008851.3) were a gift from Dr. Massimo Mantegazza. Human VGSC β1 subunit GenBank accession number NP_001028.1) cDNA was transfected into this line to generate a second, stable line. Cells were cultured in Dulbecco's Modified Eagle Medium containing (4.5 g/L D-glucose, L-glutamine, 110 mg/L sodium pyruvate, 200 μg/mL G418, 100 U/mL penicillin/streptomycin). All cells were maintained in an incubator at 37° C. with 5% CO2.
Manual Sodium Current Recording: Sodium current (INa) was measured at room temperature using the manual whole-cell patch clamp technique with previously described electrophysiological methods (Chen et al., J Biol Chem., 2012; 287 (46): 39061-39069). Cells were plated on 12 mm diameter clear glass poly-D-lysine coated coverslips (Neuvitro) and used for electrophysiological recordings within 48 hours after plating. Cells were identified with an AIR upright confocal microscope (Nikon). Micropipettes were obtained from 1.5 mm outer diameter capillary glass tubing (Harvard Apparatus) using a P-97 horizontal puller (Sutter Instrument Co.). Micropipettes were then polished using a MF-830 micro forge (Narishige) to obtain a resistance between 2.0 to 5.0 M (2. The intracellular solution contained the following (in mM): 1 NaCl, 125 N-methyl-D-glucamine, 2 MgCl2, 10 EGTA, 40 HEPES, 5 phosphocreatine-tris, 2 Mg-ATP, 0.2 Na2-GTP, 0.1 leupeptin, 270-275 mOsm, pH 7.2 with H2SO4. Extracellular solution contained the following (in mM): 120 NaCl, 1 BaCl2, 2 MgCl2, 0.2 CdCl2, 1 CaCl2), 20 sucrose, 10 glucose, 10 HEPES, 10 tetraethylammonium chloride, 300-305 mOsm, pH 7.35 with NaOH. Signals were amplified using a Multiclamp 700B amplifier (Molecular Devices). Data were acquired with a Digidata 1440A interface (Molecular Devices) and analyzed using pClamp10 offline. Pipette and whole-cell capacitance were fully compensated, and series resistance was predicted and compensated at 50%. Signals were low pass-filtered at 10 kHz, and data were sampled at 20 kHz. Residual linear capacity and leak currents were eliminated using online P/4 subtraction. Gravity-powered perfusion of XOB was used in all manual patch clamp experiments with a flow rate of 2-3 mL/min. All manual whole-cell INa recorded under XOB conditions was conducted after 3.9 minutes of perfusion unless indicated otherwise.

human Nav1.1 and Navβ1 [2] = target: T3, human Nav1.1 and Navβ1; test: cell-based; settings: for Peak INa Density @ −20 mV: I-V curve
5-HT2A = 5-HT2A (Homo sapiens, UniProt P28223); test: Gq-mediated calcium flux assay, Flp-In 293 T-Rex inducible cells (agonist and antagonist mode); format: cell-based; parameters: expressed in transfected cells
Chain of 5-HT2A (P28223 whole entry): as the sequence (P28223 whole entry) above

5-HT2B = 5-HT2B (Homo sapiens, UniProt P41595); test: as above; format: cell-based; parameters: expressed in transfected cells
Chain of 5-HT2B (P41595 whole entry): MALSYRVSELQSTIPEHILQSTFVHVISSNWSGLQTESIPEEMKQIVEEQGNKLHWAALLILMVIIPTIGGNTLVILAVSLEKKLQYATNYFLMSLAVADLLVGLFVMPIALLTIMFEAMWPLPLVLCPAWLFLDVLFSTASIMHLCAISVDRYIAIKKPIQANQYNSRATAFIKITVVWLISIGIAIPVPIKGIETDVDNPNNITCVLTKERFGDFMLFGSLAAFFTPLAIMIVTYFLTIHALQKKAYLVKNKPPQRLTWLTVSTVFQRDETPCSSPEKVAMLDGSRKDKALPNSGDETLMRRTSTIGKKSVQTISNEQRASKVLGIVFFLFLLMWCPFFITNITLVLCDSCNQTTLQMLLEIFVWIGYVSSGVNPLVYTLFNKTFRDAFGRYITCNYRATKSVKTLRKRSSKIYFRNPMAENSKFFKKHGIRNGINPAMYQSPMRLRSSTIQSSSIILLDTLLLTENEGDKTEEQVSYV

[3] = antagonist mode, concentrations up to 10 μM

COc1cc(CCNCCCCCCOCCCCc2ccccc2)c(OC)cc1Br [XOB, N-(4-bromo-2,5-dimethoxyphenethyl)-6-(4-phenylbutoxy)hexan-1-amine]
Ki (HiBiT-5-HT2A): 2600 nM and 2000 to 3000 nM
agonist activity at 5-HT2C (human 5-HT2C receptor; agonist mode, up to 10 μM): little to no measurable agonist activity
inhibition of 5-HT-mediated calcium flux at 5-HT2C (human 5-HT2C receptor; [3]): < 50%
reduction in Nav1.1 peak INa (human Nav1.1 and Navβ1 [1]; 1 μM): 35.3%
% Initial Peak INa (human Nav1.1 and Navβ1 [1]; 1 μM, time 0 s, step −120 mV to 0 mV): 100%
% Initial Peak INa (human Nav1.1 and Navβ1 [1]; 1 μM, time 31.2 s): 100.6%
% Initial Peak INa (human Nav1.1 and Navβ1 [1]; 1 μM, time 62.4 s): 93.0%
% Initial Peak INa (human Nav1.1 and Navβ1 [1]; 1 μM, time 93.6 s): 88.8%
% Initial Peak INa (human Nav1.1 and Navβ1 [1]; 1 μM, time 124.8 s): 87.0%
% Initial Peak INa (human Nav1.1 and Navβ1 [1]; 1 μM, time 150.8 s): 77.7%
% Initial Peak INa (human Nav1.1 and Navβ1 [1]; 1 μM, time 182 s): 75.1%
% Initial Peak INa (human Nav1.1 and Navβ1 [1]; 1 μM, time 213.2 s): 70.9%
% Initial Peak INa (human Nav1.1 and Navβ1 [1]; 1 μM, time 234 s): 64.7%
reduction in Nav1.1 peak INa (human Nav1.1 and Navβ1 [1]; 5 μM): 95.7%
% Initial Peak INa (human Nav1.1 and Navβ1 [1]; 5 μM, time 0 s, step −120 mV to 0 mV): 100%
% Initial Peak INa (human Nav1.1 and Navβ1 [1]; 5 μM, time 31.2 s): 95.4%
% Initial Peak INa (human Nav1.1 and Navβ1 [1]; 5 μM, time 62.4 s): 40.0%
% Initial Peak INa (human Nav1.1 and Navβ1 [1]; 5 μM, time 93.6 s): 23.7%
% Initial Peak INa (human Nav1.1 and Navβ1 [1]; 5 μM, time 124.8 s): 11.2%
% Initial Peak INa (human Nav1.1 and Navβ1 [1]; 5 μM, time 150.8 s): 9.3%
% Initial Peak INa (human Nav1.1 and Navβ1 [1]; 5 μM, time 182 s): 5.4%
% Initial Peak INa (human Nav1.1 and Navβ1 [1]; 5 μM, time 213.2 s): 6.4%
% Initial Peak INa (human Nav1.1 and Navβ1 [1]; 5 μM, time 234 s): 4.3%
reduction in Nav1.1 peak INa (human Nav1.1 and Navβ1 [1]; 10 μM): 98.6%
% Initial Peak INa (human Nav1.1 and Navβ1 [1]; 10 μM, time 0 s, step −120 mV to 0 mV): 100%
% Initial Peak INa (human Nav1.1 and Navβ1 [1]; 10 μM, time 31.2 s): 97.1%
% Initial Peak INa (human Nav1.1 and Navβ1 [1]; 10 μM, time 62.4 s): 94.8%
% Initial Peak INa (human Nav1.1 and Navβ1 [1]; 10 μM, time 93.6 s): 73.7%
% Initial Peak INa (human Nav1.1 and Navβ1 [1]; 10 μM, time 124.8 s): 28.5%
% Initial Peak INa (human Nav1.1 and Navβ1 [1]; 10 μM, time 150.8 s): 8.7%
% Initial Peak INa (human Nav1.1 and Navβ1 [1]; 10 μM, time 182 s): 2.9%
% Initial Peak INa (human Nav1.1 and Navβ1 [1]; 10 μM, time 213.2 s): 2.5%
% Initial Peak INa (human Nav1.1 and Navβ1 [1]; 10 μM, time 234 s): 1.4%
Bottom of concentration response curve (normalized peak INa inhibition) (human Nav1.1 and Navβ1 [2]): 0.02
Hill Slope of concentration response curve on peak INa (human Nav1.1 and Navβ1 [2]): 1.45
Top of concentration response curve (normalized peak INa inhibition) (human Nav1.1 and Navβ1 [2]): 0.88
effect on voltage-dependence of sodium conductance (human Nav1.1 and Navβ1 [2]): no effect was observed
Normalized Peak INa Inhibition (human Nav1.1 and Navβ1 [2]; 0.1 nM, peak protocol): −0.077 ± 0.08
Peak INa Density (human Nav1.1 and Navβ1 [2]; 0.1 nM, peak protocol): −429.6 ± 50.7 pA/pF
Peak INa Density @ −20 mV (human Nav1.1 and Navβ1 [2]; 1 nM): −395.9 ± 56.0 pA/pF
Normalized Peak INa Inhibition (human Nav1.1 and Navβ1 [2]; 1 nM, peak protocol): 0.015 ± 0.03
Peak INa Density (human Nav1.1 and Navβ1 [2]; 1 nM, peak protocol): −386.1 ± 56.6 pA/pF
Peak INa Density @ −20 mV (human Nav1.1 and Navβ1 [2]; 10 nM): −319.1 ± 50.5 pA/pF
Normalized Peak INa Inhibition (human Nav1.1 and Navβ1 [2]; 10 nM, peak protocol): −0.011 ± 0.03
Peak INa Density (human Nav1.1 and Navβ1 [2]; 10 nM, peak protocol): −311.1 ± 41.7 pA/pF
Peak INa Density @ −20 mV (human Nav1.1 and Navβ1 [2]; 100 nM): −258.3 ± 34.1 pA/pF
Normalized Peak INa Inhibition (human Nav1.1 and Navβ1 [2]; 100 nM, peak protocol): 0.13 ± 0.02
Peak INa Density (human Nav1.1 and Navβ1 [2]; 100 nM, peak protocol): −276.0 ± 31.0 pA/pF
Peak INa Density @ −20 mV (human Nav1.1 and Navβ1 [2]; 300 nM): −235.1 ± 37.9 pA/pF
Normalized Peak INa Inhibition (human Nav1.1 and Navβ1 [2]; 300 nM, peak protocol): 0.08 ± 0.06
Peak INa Density (human Nav1.1 and Navβ1 [2]; 300 nM, peak protocol): −259.2 ± 38.0 pA/pF
Peak INa Density @ −20 mV (human Nav1.1 and Navβ1 [2]; 500 nM): −269.2 ± 38.8 pA/pF
Normalized Peak INa Inhibition (human Nav1.1 and Navβ1 [2]; 500 nM, peak protocol): 0.05 ± 0.07
Peak INa Density (human Nav1.1 and Navβ1 [2]; 500 nM, peak protocol): −284.6 ± 35.2 pA/pF
Peak INa Density @ −20 mV (human Nav1.1 and Navβ1 [2]; 1 μM): −320.5 ± 40.0 pA/pF
Normalized Peak INa Inhibition (human Nav1.1 and Navβ1 [2]; 1 μM, peak protocol): 0.12 ± 0.03
Peak INa Density (human Nav1.1 and Navβ1 [2]; 1 μM, peak protocol): −319.1 ± 34.5 pA/pF
Activation Slope Factor (human Nav1.1 and Navβ1 [2]; 3 μM): 6.18 ± 1.1 mV^−1
Activation V1/2 (human Nav1.1 and Navβ1 [2]; 3 μM): −34.32 ± 1.8 mV
Capacitance (human Nav1.1 and Navβ1 [2]; 3 μM): 11.17 ± 1.0 pF
Inactivation Slope Factor (human Nav1.1 and Navβ1 [2]; 3 μM): −6.41 ± 0.7 mV^−1
Inactivation V1/2 (human Nav1.1 and Navβ1 [2]; 3 μM): −60.46 ± 1.5 mV
Peak INa Density @ −20 mV (human Nav1.1 and Navβ1 [2]; 3 μM): −149.4 ± 22.4 pA/pF
Normalized Peak INa Inhibition (human Nav1.1 and Navβ1 [2]; 3 μM, peak protocol): 0.36 ± 0.05
Peak INa Density (human Nav1.1 and Navβ1 [2]; 3 μM, peak protocol): −187.1 ± 23.3 pA/pF
Peak INa Density @ −20 mV (human Nav1.1 and Navβ1 [2]; 5 μM): −115.6 ± 20.4 pA/pF
Normalized Peak INa Inhibition (human Nav1.1 and Navβ1 [2]; 5 μM, peak protocol): 0.46 ± 0.06
Peak INa Density (human Nav1.1 and Navβ1 [2]; 5 μM, peak protocol): −171.3 ± 22.2 pA/pF
reduction of baseline peak INa (human Nav1.1 and Navβ1 [2]; 10 μM): 73±3%
Peak INa Density @ −20 mV (human Nav1.1 and Navβ1 [2]; 10 μM, step −120 mV to −20 mV): −17.46±3.1 pA/pF
Peak INa Density (human Nav1.1 and Navβ1 [2]; 10 μM, peak protocol): −85.4 ± 12.9 pA/pF
Normalized Peak INa Inhibition (human Nav1.1 and Navβ1 [2]; 10 μM, peak protocol, 1−(IDrug÷IReference)): 0.73 ± 0.03
IC50 (human Nav1.1 and Navβ1 [2]; concentration response curve, peak protocol, read-out: IC50, inhibition of peak INa (VGSC)): 4290 nM
agonist activity at 5-HT2A (5-HT2A; agonist mode, up to 10 μM): little to no measurable agonist activity
IC50 (5-HT2A; antagonist mode, 3.2 nM 5-HT, read-out: IC50, antagonism at 5-HT2A): 1300 nM
EC50 (5-HT2A; antagonist mode, read-out: EC50, antagonizes 5-HT2A): 1300 nM
agonist activity at 5-HT2B (5-HT2B; agonist mode, up to 10 μM): little to no measurable agonist activity
inhibition of 5-HT-mediated calcium flux at 5-HT2B (5-HT2B; [3]): < 50%
